Results taken from patent publication US20130143236A1, “METHOD FOR DETERMINING SENSITIVITY OF TUMOR CELLS TO DASATINIB AND COMPUTER PROGRAM” (priority 2011, published 2013).

Test system: tyrosine kinase in the measurement sample (cell membrane fraction of breast cancer cell lines)
Experiment: Tyrosine kinase activity of cell membrane fraction in presence/absence of tyrosine kinase inhibitor (Poly-Glu4-Tyr substrate, ELISA chemiluminescence)
Type: biochemical
Settings: 25 μM kinase inhibitor, 25 μM ATP, activity with inhibitor / without
Protocol: 500 μl of NP40(−) solubilized buffer (20 mM HEPES (pH 7.4)), 10 (w/v) % glycerol, 0.2% protease inhibitor cocktail (#P8340: Sigma-Aldrich (product composition: 104 mM AEBSF, 80 μM aprotinin, 4 mM bestatin, 1.4 mM E-64, 2 mM leupeptin, 1.5 mM Pepstatin A), 50 mM NaF and 200 μM Na3VO4) was added to the cell pellet, followed by stirring for 2 seconds three times using a vortex mixer. After being allowed to stand for 10 minutes, the soluble fraction was removed by centrifugal operation (at 20000×g, for 30 minutes, at 4° C.). The obtained pellet was resuspended in 500 μl of NP40(−) solubilized buffer, the soluble fraction was again removed by centrifugal operation (at 20000×g, for 20 minutes, at 4° C.), and the pellet was washed. The pellet was resuspended by adding 500 μl of NP40(+) solubilized buffer (a buffer prepared by adding NP-40 to the NP40(−) solubilized buffer at a final concentration of 1% to the pellet, pipetting 50 times, and vortexing for 2 seconds three times. After being allowed to stand for 10 minutes, a cell membrane fraction containing a membrane protein was obtained by centrifugal operation (at 20000×g, for 40 minutes, at 4° C.). The protein concentration of the obtained cell membrane fraction was measured by DC protein assay (#500-0116 JA: Bio-Rad). Then, the cell membrane fraction was used as a measurement sample for the following experiments. The measurement sample was frozen with liquid nitrogen and stored at −80° C. before use for the following kinase activity measurement.
NeutrAvidin Coated Plates (HBC) (96-well white plate; #15509: Pierce) were washed three times with 300 μl of TBS-T (20 mM Tris-HCl (pH 7.4)), 150 mM NaCl, 0.1% tween). Then, 100 μl of Poly-Glu4-Tyr biotin conjugate (#12440: Upstate) which had been diluted to 1 μg/ml with TBS (20 mM Tris-HCl (pH 7.4), 150 mM NaCl) was added to the wells. After shaking at 37° C. and 400 rpm for 90 minutes, the wells were washed with 300 μl of TBS-T three times and a measuring plate was obtained.
The measurement sample was diluted with a kinase buffer (20 mM HEPES (pH 7.4), 25 mM MgCl2, 1.25 mM MnCl2, 250 μM Na3VO4, 12.5 (w/v) % glycerol) so as to adjust the protein concentration to 6.25 μg/ml. The diluted measurement sample was transferred to wells of a 96 well V bottom plate. As the tyrosine kinase inhibitors, Src kinase inhibitor I known as an inhibitor of Src (CAS No. 179248-59-0: Calbiochem), PP1 (CAS No. 172889-26-8: Biomol), and Src kinase inhibitor II (Calbiochem) represented by Structural formula (I) below were used. A DMSO solution (inhibitor concentration: 5 mM) containing these inhibitors (Inhibitors 1 to 10 shown in Table 6) was added to the wells at a ratio of 1:160 based on the diluted measurement sample, followed by mixing thereof. As the control, DMSO was added to the diluted measurement sample at the same ratio as the solution of the inhibitor.
After addition of each of the tyrosine kinase inhibitors, a mixed solution of the measurement sample and the inhibitor was allowed to stand at room temperature for 10 minutes. 40 μl of the mixed solution was transferred to wells of the measuring plate and 10 μl of an ATP solution (20 mM HEPES (pH 7.4), […]) as the phosphate group donor was added to the wells. The composition of the solution in the wells is as follows: protein concentration: 5 μg/ml, 20 mM HEPES (pH 7.4), 20 mM MgCl2, 1 mM MnCl2, 200 μM Na3VO4, 10 (w/v) % glycerol, and 25 μM ATP, 25 μM kinase inhibitor.
After shaking the measuring plate at 37° C. and 400 rpm for 60 minutes, the solution was removed from the measuring plate, and the wells were washed with 300 μl of TBS-T three times. 100 μl of Starting Block T20 (TBS) (#37543: Pierce) as a blocking solution was added to the wells, followed by blocking at 37° C. and 400 rpm for 10 minutes. The blocking solution was removed from the measuring plate. […]

[1] = AU565 membrane fraction (dasatinib-insensitive cell line)
[2] = BT-20 membrane fraction (dasatinib-sensitive cell line)
[3] = BT-474 membrane fraction (dasatinib-insensitive cell line)
[4] = BT-549 membrane fraction (dasatinib-insensitive cell line)
[5] = HCC1419 membrane fraction (dasatinib-insensitive cell line)
[6] = HCC1428 membrane fraction (dasatinib-insensitive cell line)
[7] = HCC1806 membrane fraction (dasatinib-sensitive cell line)
[8] = HCC1954 membrane fraction (dasatinib-sensitive cell line)
[9] = HS578T membrane fraction (dasatinib-sensitive cell line)
[10] = MCF7 membrane fraction (dasatinib-insensitive cell line)
[11] = MDA-MB-157 membrane fraction (dasatinib-sensitive cell line)
[12] = MDA-MB-231 membrane fraction (dasatinib-sensitive cell line)
[13] = MDA-MB-435S membrane fraction (dasatinib-insensitive cell line)
[14] = MDA-MB-436 membrane fraction (dasatinib-insensitive cell line)
[15] = MDA-MB-453 membrane fraction (dasatinib-insensitive cell line)
[16] = MDA-MB-468 membrane fraction (dasatinib-insensitive cell line)
[17] = SK-BR-3 membrane fraction (dasatinib-insensitive cell line)
[18] = ZR-75-1 membrane fraction (dasatinib-insensitive cell line)
[19] = ZR-75-30 membrane fraction (dasatinib-insensitive cell line)

| Compound | RA (relative activity value) [1] | RA (relative activity value) [2] | RA (relative activity value) [3] | RA (relative activity value) [4] | RA (relative activity value) [5] | RA (relative activity value) [6] | RA (relative activity value) [7] | RA (relative activity value) [8] | RA (relative activity value) [9] | RA (relative activity value) [10] | RA (relative activity value) [11] | RA (relative activity value) [12] | RA (relative activity value) [13] | RA (relative activity value) [14] | RA (relative activity value) [15] | RA (relative activity value) [16] | RA (relative activity value) [17] | RA (relative activity value) [18] | RA (relative activity value) [19] |
| --- | --- | --- | --- | --- | --- | --- | --- | --- | --- | --- | --- | --- | --- | --- | --- | --- | --- | --- | --- |
| Cc1ccc(-c2nn(C(C)(C)C)c3ncnc(N)c23)cc1 [PP1, 1-(1,1-dimethylethyl)-1-(4-methylphenyl)-1H-pyrazolo-[3,4-d]-pyrimidine-4-amine] | 0.302 | 0.309 | 0.496 | 0.193 | 0.446 | 0.451 | 0.160 | 0.292 | 0.194 | 0.295 | 0.173 | 0.134 | 0.313 | 0.403 | 0.448 | 0.322 | 0.260 | 0.314 | 0.507 |
| COc1cc2ncnc(Nc3ccc(Oc4ccccc4)cc3)c2cc1OC [Src kinase inhibitor I, 4-(4′-phenoxylanilino)-6,7-dimethoxyquinazoline] | 0.632 | 0.434 | 0.624 | 0.394 | 0.637 | 0.563 | 0.329 | 0.535 | 0.418 | 0.508 | 0.397 | 0.364 | 0.551 | 0.551 | 0.837 | 0.190 | 0.567 | 0.442 | 0.627 |
| COc1ccc2c(c1)cc(C)c1nnc(SCC(=O)Nc3cccc(C(C)=O)c3)n12 [Src kinase inhibitor II] | 0.731 | 0.668 | 0.620 | 0.528 | 0.615 | 0.720 | 0.476 | 0.644 | 0.709 | 0.307 | 0.715 | 0.426 | 0.500 | 0.514 | 0.549 | 0.523 | 0.414 | 0.697 | 0.596 |
